In data set [1] the test system is Dendritic cell. The data set can be described thus: Antiinflammatory activity in human monocytes-derived dendritic cells assessed as decrease in IL-12p40 secretion at 10 ug/ml after 24 hrs by ELISA method relative to control. The data set is classed as functional. Also on record: scale not given: the % may be the effect or the level left.
In data set [2] the test system is Dendritic cell. The experiment in a line: Cytotoxicity against human monocytes-derived dendritic cells assessed as reduction in cell viability after 10 ug/ml after 24 hrs by trypan blue staining based assay. The note with it: dose 10 µg/ml.
Data set [3] has as its system Dendritic cell. The experiment in a line: Antiinflammatory activity in human monocytes-derived dendritic cells assessed as increase in IL-10 secretion at 10 ug/ml after 24 hrs by ELISA method relative to control. In kind it is functional.
Data set [4] relates to Dendritic cell. The data set can be described thus: Antiinflammatory activity in human monocytes-derived dendritic cells assessed as decrease in IL-12p40 secretion after 24 hrs by ELISA method relative to control. The data set is classed as functional, cell-based.

Calls of active or inactive are those of the source. No cut-off for these calls is given here.

For `CC(C)C(=O)c1c(CCN(C)C)c2ccc(Br)cc2[nH]c1=O`, the results for the Activity in the data set on Dendritic cell [1] (dose 10 µg/ml) and in the data set with Dendritic cell [2] were 45% and “Non-Toxic”, respectively.
On to `C=CC(C)(C)[C@@]12CCN(C)[C@@H]1N(C(O)C(O)C(C)(C)O)c1cc(Br)ccc12` (some centres not stated), for which the outcome with Dendritic cell [3] (dose 10.0 µg/ml) and in the data set on Dendritic cell [1] (dose 10.0 µg/ml) was inactive.
With `C=CC(C)(C)[C@@]12CCN(C)[C@@H]1N(C)c1cc(Br)ccc12`, the result in the data set with Dendritic cell [3] (dose 10.0 µg/ml) and in the data set on Dendritic cell [1] (dose 10.0 µg/ml) was inactive.
In the case of `C=CC(C)(C)C(=O)Nc1cc(Br)ccc1C(=O)O`, the figures for the Activity in the data set on Dendritic cell [1] (dose 10 µg/ml) and in the data set with Dendritic cell [2] were 45% and “Non-Toxic”, respectively.
`CN(C)CCc1c[nH]c2cc(Br)ccc12.O=C(O)C(F)(F)F`: the Activity in the data set with Dendritic cell [1] (dose 10 µg/ml) was 45%; in the data set on Dendritic cell [2] it was “Non-Toxic”.
Consider `C/C(=C\C(=O)NCCc1c[nH]cn1)CCCC(C)(C)O`, for which the Activity with Dendritic cell [3] (dose 10 µg/ml) was found to be 19%.
Consider `C=CC(C)(C)[C@@]12CCN(C)[C@@H]1N(CC(O)C(C)(C)O)c1cc(Br)ccc12` (some centres not stated), for which the outcome with Dendritic cell [3] (dose 10.0 µg/ml) and in the data set with Dendritic cell [1] (dose 10.0 µg/ml) was inactive.
For `O=C(O)C(F)(F)F.O=Cc1c[nH]c2cc(Br)ccc12`, the Activity with Dendritic cell [1] (dose 10 µg/ml) is 45%; in the data set on Dendritic cell [2] it was “Non-Toxic”.
As to `C=CC(C)(C)[C@@]12CCN(C)[C@@H]1N(CC=C(C)C)c1cc(Br)ccc12`, the result with Dendritic cell [3] (dose 10.0 µg/ml) and in the data set with Dendritic cell [1] (dose 10.0 µg/ml) was inactive.
Turning to `CNCC[C@]1(O)C(=O)N(CC=C(C)C)c2cc(Br)ccc21`, the outcome in the data set with Dendritic cell [3] (dose 10.0 µg/ml) and with Dendritic cell [1] (dose 10.0 µg/ml) was inactive.
`CC(C)=CCN1c2cc(Br)ccc2[C@]2(CC=C(C)C)CCN(C)[C@H]12`: the result in the data set on Dendritic cell [3] (dose 10.0 µg/ml) and in the data set on Dendritic cell [1] (dose 10.0 µg/ml) was inactive.
On to `CC(C)=CC[C@@]12CCN(C)[C@@H]1Nc1cc(Br)ccc12`, for which the result with Dendritic cell [3] (dose 10.0 µg/ml) and in the data set with Dendritic cell [1] (dose 10.0 µg/ml) was inactive.
Take `C=CC(C)(C)c1c(CCNC)c2ccc(Br)cc2n1C.O=C(O)C(F)(F)F`: the Activity with Dendritic cell [1] (dose 10 µg/ml) is reported as 45%; with Dendritic cell [2], “Non-Toxic”.
For the molecule `CC(C)=CC[C@@]12CCN(C)[C@@H]1Nc1c(Br)ccc(O)c12`, the outcome in the data set on Dendritic cell [3] (dose 10.0 µg/ml) and in the data set on Dendritic cell [1] (dose 10.0 µg/ml) was inactive.
Regarding `CO[C@H](c1[nH]c2cc(Br)ccc2c1CCN(C)C)[C@@H](O)C(C)(C)O`, the Activity in the data set with Dendritic cell [1] (dose 10 µg/ml) was 45%; with Dendritic cell [2], “Non-Toxic”.
On to `C=CC(C)(C)[C@@]12CCN(C)C1=Nc1cc(Br)ccc12`, for which the outcome in the data set with Dendritic cell [3] (dose 10.0 µg/ml) and with Dendritic cell [1] (dose 10.0 µg/ml) was inactive.
On to `C=CC(C)(C)c1[nH]c2cc(Br)ccc2c1CC[N+]1(C)CCOC1` (configuration not stated), for which the Activity with Dendritic cell [1] (dose 10 µg/ml) was 45%; in the data set with Dendritic cell [2], “Non-Toxic”.
Consider `CNCCc1cn(CC=C(C)C)c2cc(Br)ccc12.O=C(O)C(F)(F)F`, for which the IC50 in the data set on Dendritic cell [4] was 2900 nM. Moreover, the Activity in the data set on Dendritic cell [1] (dose 10 µg/ml) is recorded as 45%; in the data set with Dendritic cell [2], “Non-Toxic”.
Turning to `C=CC(C)(C)[C@@]12CCN[C@@H]1Nc1cc(Br)ccc12`, the result with Dendritic cell [3] (dose 10.0 µg/ml) and in the data set with Dendritic cell [1] (dose 10.0 µg/ml) was inactive.
Turning to `C=CC(C)(C)[C@@]12CCN(C)[C@@H]1N(C(OC)C(O)C(C)(C)O)c1cc(Br)ccc12` (some centres not stated), the result with Dendritic cell [3] (dose 10.0 µg/ml) and in the data set on Dendritic cell [1] (dose 10.0 µg/ml) was inactive.
On to `CC(C)=CC[C@@]12CCN(C)[C@@H]1N(C(O)C(O)C(C)(C)O)c1cc(Br)ccc12` (some centres not stated), for which the outcome in the data set on Dendritic cell [3] (dose 10.0 µg/ml) and in the data set with Dendritic cell [1] (dose 10.0 µg/ml) was inactive.
Consider `CC(C)=CC[C@@]12CCN(C)[C@@H]1N(CC(O)C(C)(C)O)c1cc(Br)ccc12` (some centres not stated), for which the outcome with Dendritic cell [3] (dose 10.0 µg/ml) and in the data set on Dendritic cell [1] (dose 10.0 µg/ml) was inactive.
With `C=CC(C)(C)[C@@]1(CCNC)C(=O)Nc2cc(Br)ccc21`, the outcome with Dendritic cell [3] (dose 10.0 µg/ml) and with Dendritic cell [1] (dose 10.0 µg/ml) was inactive.
Take `CC1=C[C@H]2[C@@H]([C@@H](c3[nH]c4cc(Br)ccc4c3CCN(C)C)[C@]34CC[N+](C)(C)[C@]23Nc2cc(Br)ccc24)C(C)(C)C1` (relative stereo): the Activity in the data set on Dendritic cell [3] (dose 10 µg/ml) is 19%.

These data come from ChEMBL document CHEMBL4699551, “Bromotryptamine and Imidazole Alkaloids with Anti-inflammatory Activity from the Bryozoan Flustra foliacea” (J Nat Prod, 2020).
